Laboratory results as given in PubChem BioAssay AID256 (DTP/NCI, 2004).
Where “and” joins values, the source holds several entries; their conditions need not be identical. Equal entries are not always repeated. Inconclusive results and toxic doses are left out. How the source made its calls: active means survival T/C of 150% or more; inactive means T/C below 125% in these data.

Test system: CD2F1 mice, L1210 leukemia ip, survival T/C
Experiment: NCI In Vivo Anticancer Drug Screen. Data for tumor model L1210 Leukemia (intraperitoneal) in CD2F1 (CDF1) mice
Conditions: higher = longer survival
Method in brief: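 Vehicle-treated tumor-bearing mice served as controls (C) for compound-treated mice (T). Reported figure is T divided by C.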

[1] = endpoint: mean survival time, dose: 100.0 mg/kg/injection, schedule: Q04DX002 (ip), vehicle: saline with Tween-80
[2] = endpoint: mean survival time, dose: 200.0 mg/kg/injection, schedule: Q04DX002 (ip), vehicle: saline with Tween-80
[3] = endpoint: mean survival time, dose: 100.0 mg/kg/injection, schedule: Q01DX009 (ip), vehicle: saline with Tween-80
[4] = endpoint: mean survival time, dose: 200.0 mg/kg/injection, schedule: Q01DX009 (ip), vehicle: saline with Tween-80
[5] = endpoint: mean survival time, dose: 400.0 mg/kg/injection, schedule: Q01DX009 (ip), vehicle: saline with Tween-80
[6] = endpoint: mean survival time, dose: 50.0 mg/kg/injection, schedule: Q01DX009 (ip), vehicle: saline with Tween-80
[7] = endpoint: mean survival time, dose: 12.5 mg/kg/injection, schedule: Q01DX009 (ip), vehicle: saline with Tween-80
[8] = endpoint: mean survival time, dose: 25.0 mg/kg/injection, schedule: Q01DX009 (ip), vehicle: saline with Tween-80
[9] = endpoint: mean survival time, dose: 100.0 mg/kg/injection, schedule: Q04DX003 (ip), vehicle: saline with Tween-80
[10] = endpoint: mean survival time, dose: 200.0 mg/kg/injection, schedule: Q04DX003 (ip), vehicle: saline with Tween-80
[11] = endpoint: mean survival time, dose: 400.0 mg/kg/injection, schedule: Q04DX003 (ip), vehicle: saline with Tween-80

Measured: T/C

C[CH2][Pb]([CH2]C)([CH2]C)[O]C(=O)COc1ccccc1
inactive: endpoint: mean survival time, dose: 1.5 mg/kg/injection, schedule: Q04DX003 (ip), vehicle: Klucel (hydroxypropylcellulose) (HPC) 104 % of control | endpoint: mean survival time, dose: 3.0 mg/kg/injection, schedule: Q04DX003 (ip), vehicle: Klucel (hydroxypropylcellulose) (HPC) 97 % of control | endpoint: mean survival time, dose: 6.0 mg/kg/injection, schedule: Q04DX003 (ip), vehicle: Klucel (hydroxypropylcellulose) (HPC) 100 % of control | endpoint: mean survival time, dose: 12.0 mg/kg/injection, schedule: Q04DX003 (ip), vehicle: Klucel (hydroxypropylcellulose) (HPC) 104 % of control | endpoint: mean survival time, dose: 24.0 mg/kg/injection, schedule: Q04DX003 (ip), vehicle: Klucel (hydroxypropylcellulose) (HPC) 86 % of control

O=C(O)C1Cc2c([nH]c3ccccc23)C2CCC(=O)N12 (stereo not drawn)
inactive: [1] 100 % of control | [2] 108 % of control | endpoint: mean survival time, dose: 400.0 mg/kg/injection, schedule: Q04DX002 (ip), vehicle: saline with Tween-80 100 % of control

COc1ccc(CN(C)CCO)cc1OC
inactive: endpoint: median survival time, dose: 25.0 mg/kg/injection, schedule: Q04DX003 (ip), vehicle: saline 100 % of control | endpoint: median survival time, dose: 50.0 mg/kg/injection, schedule: Q04DX003 (ip), vehicle: saline 100 % of control | endpoint: median survival time, dose: 100.0 mg/kg/injection, schedule: Q04DX003 (ip), vehicle: saline 90 % of control | endpoint: median survival time, dose: 200.0 mg/kg/injection, schedule: Q04DX003 (ip), vehicle: saline 100 % of control

O=C(CC(O)C(Cl)(Cl)Cl)c1ccccc1 (stereo not drawn)
inactive: endpoint: mean survival time, dose: 50.0 mg/kg/injection, schedule: Q04DX002 (ip), vehicle: saline with Tween-80 88 % of control | [1] 88 % of control

c1ccc([P+](Cc2ccc(C[P+](c3ccccc3)(c3ccccc3)c3ccccc3)cc2)(c2ccccc2)c2ccccc2)cc1
inactive: endpoint: mean survival time, dose: 0.07 mg/kg/injection, schedule: Q01DX009 (ip), vehicle: saline sonified 94 % of control | endpoint: mean survival time, dose: 0.07 mg/kg/injection, schedule: Q04DX003 (ip), vehicle: saline with Tween-80 97 % of control | endpoint: mean survival time, dose: 0.15 mg/kg/injection, schedule: Q01DX009 (ip), vehicle: saline sonified 98 % of control | endpoint: mean survival time, dose: 0.15 mg/kg/injection, schedule: Q04DX003 (ip), vehicle: saline with Tween-80 93 % of control | endpoint: mean survival time, dose: 0.3 mg/kg/injection, schedule: Q01DX009 (ip), vehicle: saline sonified 93 % of control | endpoint: mean survival time, dose: 0.3 mg/kg/injection, schedule: Q04DX003 (ip), vehicle: saline with Tween-80 93 % of control | endpoint: mean survival time, dose: 0.6 mg/kg/injection, schedule: Q01DX009 (ip), vehicle: saline sonified 96 % of control | endpoint: mean survival time, dose: 0.6 mg/kg/injection, schedule: Q04DX003 (ip), vehicle: saline with Tween-80 98 % of control

CCCCCCCCCCCCC(=O)OC
inactive: [3] 107 % of control | [4] 106 % of control | [5] 105 % of control

Cc1ccc(NC(=O)OCCOc2ccc(-c3ccccc3)cc2)cc1[N+](=O)[O-]
inactive: [6] 98 % of control | [3] 98 % of control | [4] 94 % of control

CC(C)c1cc(C(C)C)c(S(=O)(=O)OCC2OC(OC3(COS(=O)(=O)c4c(C(C)C)cc(C(C)C)cc4C(C)C)OC(COS(=O)(=O)c4c(C(C)C)cc(C(C)C)cc4C(C)C)C(O)C3O)C(O)C(O)C2O)c(C(C)C)c1 (stereo not drawn)
inactive: [6] 98 % of control | [3] 95 % of control | [4] 102 % of control

Cc1cc2nc3c4ccccc4n(C)c3nc2cc1C
inactive: endpoint: mean survival time, dose: 50.0 mg/kg/injection, schedule: Q01DX009 (sc), vehicle: Klucel (hydroxypropylcellulose) (HPC) 101 % of control | endpoint: mean survival time, dose: 100.0 mg/kg/injection, schedule: Q01DX009 (sc), vehicle: Klucel (hydroxypropylcellulose) (HPC) 104 % of control | endpoint: mean survival time, dose: 200.0 mg/kg/injection, schedule: Q01DX009 (sc), vehicle: Klucel (hydroxypropylcellulose) (HPC) 104 % of control

CCCCOCN(COCCCC)C12CC3CC(CC(C3)C1)C2
inactive: [7] 96 % of control and 100 % of control | [8] 98 % of control | [6] 101 % of control and 103 % of control | [3] 101 % of control and 105 % of control | [4] 113 % of control and 108 % of control

CCCCCCCCC[n+]1cccc(C(N)=O)c1
inactive: [8] 97 % of control | [6] 101 % of control | [3] 95 % of control

S=C=Nc1ccccn1
inactive: [1] 86 % of control | [2] 101 % of control

CC(=O)Nc1nc(Br)c2ccccc2c1-c1ccc(N)cc1
inactive: endpoint: mean survival time, dose: 50.0 mg/kg/injection, schedule: Q04DX003 (ip), vehicle: other 97 % of control | endpoint: mean survival time, dose: 100.0 mg/kg/injection, schedule: Q04DX003 (ip), vehicle: other 94 % of control | endpoint: mean survival time, dose: 200.0 mg/kg/injection, schedule: Q04DX003 (ip), vehicle: other 94 % of control | endpoint: mean survival time, dose: 400.0 mg/kg/injection, schedule: Q04DX003 (ip), vehicle: other 102 % of control

Nc1nc(N)c2nc(CNc3ccc(C(=O)NC(CC(=O)O)C(=O)O)cc3)cnc2n1 (stereo not drawn)
inactive: endpoint: mean survival time, dose: 6.25 mg/kg/injection, schedule: Q01DX001 (ip), vehicle: saline 101 % of control | endpoint: mean survival time, dose: 12.5 mg/kg/injection, schedule: Q01DX001 (ip), vehicle: saline 98 % of control | endpoint: mean survival time, dose: 25.0 mg/kg/injection, schedule: Q01DX001 (ip), vehicle: saline 107 % of control | endpoint: mean survival time, dose: 50.0 mg/kg/injection, schedule: Q01DX001 (ip), vehicle: saline 104 % of control | endpoint: mean survival time, dose: 100.0 mg/kg/injection, schedule: Q01DX001 (ip), vehicle: saline 104 % of control | endpoint: mean survival time, dose: 200.0 mg/kg/injection, schedule: Q01DX001 (ip), vehicle: saline 117 % of control

CC(=O)Nc1c([N+](=O)[O-])cc2c3c(cccc13)CC2
inactive: [3] 102 % of control | [9] 100 % of control | [4] 97 % of control | [10] 102 % of control | [5] 97 % of control | [11] 100 % of control

CCOC(=O)c1cc([N+](=O)[O-])cc([N+](=O)[O-])c1Sc1ncnc2nc[nH]c12
inactive: endpoint: mean survival time, dose: 0.63 mg/kg/injection, schedule: Q01DX005 (ip), vehicle: other 98 % of control | endpoint: mean survival time, dose: 1.25 mg/kg/injection, schedule: Q01DX005 (ip), vehicle: other 102 % of control | endpoint: mean survival time, dose: 2.5 mg/kg/injection, schedule: Q01DX005 (ip), vehicle: other 110 % of control | endpoint: mean survival time, dose: 5.0 mg/kg/injection, schedule: Q01DX005 (ip), vehicle: other 100 % of control | endpoint: mean survival time, dose: 6.25 mg/kg/injection, schedule: Q01DX005 (ip), vehicle: other 120 % of control | endpoint: mean survival time, dose: 10.0 mg/kg/injection, schedule: Q01DX005 (ip), vehicle: other 107 % of control | endpoint: mean survival time, dose: 18.8 mg/kg/injection, schedule: Q01DX005 (ip), vehicle: other 112 % of control

COc1ccc(Cl)c2c1C1(CC(CC=O)C2)OCCO1 (stereo not drawn)
inactive: endpoint: mean survival time, dose: 75.0 mg/kg/injection, schedule: Q01DX001 (ip), vehicle: other 100 % of control | endpoint: mean survival time, dose: 150.0 mg/kg/injection, schedule: Q01DX001 (ip), vehicle: other 94 % of control | endpoint: mean survival time, dose: 300.0 mg/kg/injection, schedule: Q01DX001 (ip), vehicle: other 94 % of control

CNC(C)C(O)c1ccc(O)cc1 (stereo not drawn)
inactive: endpoint: mean survival time, dose: 50.0 mg/kg/injection, schedule: Q01DX001 (ip), vehicle: carboxymethylcellulose (CMC) 112 % of control | endpoint: mean survival time, dose: 100.0 mg/kg/injection, schedule: Q01DX001 (ip), vehicle: carboxymethylcellulose (CMC) 108 % of control | endpoint: mean survival time, dose: 200.0 mg/kg/injection, schedule: Q01DX001 (ip), vehicle: carboxymethylcellulose (CMC) 108 % of control | endpoint: mean survival time, dose: 400.0 mg/kg/injection, schedule: Q01DX001 (ip), vehicle: carboxymethylcellulose (CMC) 104 % of control

N#CCCOCCC#N
inactive: endpoint: mean survival time, dose: 100.0 mg/kg/injection, schedule: Q01DX009 (ip), vehicle: saline 100 % of control | endpoint: mean survival time, dose: 200.0 mg/kg/injection, schedule: Q01DX009 (ip), vehicle: saline 98 % of control | endpoint: mean survival time, dose: 400.0 mg/kg/injection, schedule: Q01DX009 (ip), vehicle: saline 102 % of control

ON=C(Cc1ccccc1)Cc1ccccc1
inactive: [3] 103 % of control | [9] 102 % of control | [4] 94 % of control | [10] 100 % of control | [5] 95 % of control | [11] 105 % of control

N#CCC(=O)N/N=C/c1ccccc1
inactive: [3] 91 % of control | [4] 86 % of control

CCOS(=O)(=O)c1ccc(Cl)c([N+](=O)[O-])c1
inactive: [7] 100 % of control | [8] 105 % of control | [6] 94 % of control and 100 % of control | [9] 103 % of control

COCC1OC(COC)C(OC)C1OC (stereo not drawn)
inactive: endpoint: mean survival time, dose: 100.0 mg/kg/injection, schedule: Q04DX003 (ip), vehicle: acetone 102 % of control | endpoint: mean survival time, dose: 200.0 mg/kg/injection, schedule: Q04DX003 (ip), vehicle: acetone 102 % of control | endpoint: mean survival time, dose: 400.0 mg/kg/injection, schedule: Q04DX003 (ip), vehicle: acetone 94 % of control

Cc1nc(SCc2ccc(Cl)cc2)[nH]c(=O)c1CCO
inactive: [9] 92 % of control | [10] 96 % of control | [11] 94 % of control

CC(=O)OCC(C)CCC(=O)C(C)C1C(=O)CC2C3CC=C4CC(OC(C)=O)CCC4(C)C3CCC21C (stereo not drawn)
inactive: [3] 100 % of control | [4] 97 % of control | [5] 91 % of control
